Cross reactivities data for one substance are collected here from patent publication EP1840134B1 (NOVO NORDISK A/S, priority 1998, dated 2016).

In this experiment the test system is monoclonal antibody specific for the N-terminal region of GLP-1 (7-37). Put plainly: Cross reactivity of the RIA antibody used to determine plasma concentrations. The experiment is classed as binding. The following applies: RIA at 4°C. Here is the method:
The entire procedure was carried out at 4°C.
The assay was carried out as follows: 100 µl plasma was mixed with 271 µl 96% ethanol, mixed using a vortex mixer and centrifuged at 2600*g for 30 min. The supernatant was decanted into Minisorp tubes and evaporated completely (Savant Speedvac AS290). The evaporation residue was reconstituted in the assay buffer consisting of 80 mM NaH2PO4/Na2HPO4, 0.1 % HSA (Orpha 20/21, Behring), 10 mM EDTA, 0.6 mM thiomersal (Sigma), pH 7.5. Samples were reconstituted in volumes suitable for their expected concentrations, and were allowed to reconstitute for 30 min. To 300 µl sample, 100 µl antibody solution in dilution buffer containing 40 mM NaH2PO4/Na2HPO4, 0.1 % HSA, 0.6 mM thiomersal, pH 7.5, was added. A non-specific sample was prepared by mixing 300 µl buffer with 100 µl dilution buffer. Individual standards were prepared from freeze dried stocks, dissolved in 300 µl assay buffer. All samples were pre-incubated in Minisorp tubes with antibody as described above for 72 h. […] Immediately after the centrifugation, the supernatant was decanted and counted in a γ-counter. The concentration in the samples was calculated from individual standard curves. Plasma concentrations were found, calculated as % of the maximum concentration for the individual compounds (n=2).

Regarding “GLP-1 (1-37) (HDEFERHAEGTFTSDVSSYLEGQAAKEFIAWLVKGRG; Glucagon-like peptide 1; UniProt P01275 92-128, looked up, fragment)”, the cross reactivities result is “less than 1%”.
